This note sets out measurements from US5962275A, “Method for the enzymatic galactosylation of monosaccharides and oligosaccharides” (Hoechst Aktiengesellschaft, priority 1995, dated 1999).

SMILES strings stand for the structures. Entries after “also recorded” stand apart in the source; their conditions may differ. Like-named read-outs stand apart in the source and are kept apart here.

Common to all, as to type: biochemical
Assay [1] has as its target T1, UDP-glucose 4'-epimerase (Saccharomyces cerevisiae, UniProt P04397). Kind of assay: Stability (rel. activity) of the epimerase in the presence of various donors and acceptors of GalT. As to conditions: for inactivation of the epimerase (in words): donors and acceptors of GalT, acceptors in the presence of UMP. As for the experimental part: 893 μl of 100 mM glycine buffer, pH 8.8
In order to examine the thesis that the inactivation of the epimerase can occur in association with many applications, the stability of the epimerase was tested in the presence of various donors and acceptors of GalT.
P: 200 mM HepesNaOH, pH 7.2, 1 mM DTT, 1 mg/ml BSA, 25 mM KCl containing
R: Activity following reactivation of the epimerase with
dTDP6-deoxy-D-xylo-4-hexulose (c = 0.1 mM)

For assay [2], the target named is T1, UDP-glucose 4'-epimerase. Kind of assay: Reactivation of the inactivated epimerase with activator. As to conditions: for time after which renewed inactivation of the epimerase is observed: activator 0.1 mM, galactose and UMP still present in the mixture. As for the experimental part:
Both dUDP-6-deoxy-D-xylo-4-hexulose and dTDP-6-deoxy-D-xylo-4-hexulose, and also 6-deoxyglucosone, galactosone, allosone and glucosone, were used for reactivating the epimerase.
2. Inactivation of the epimerase
1 mg/ml bovine serum albumin (BSA)
3. Activation of the epimerase
160 μl of inactivated epimerase
40 μl of activator (different concentrations)

Assay [3] addresses T1, UDP-glucose 4'-epimerase. Kind of assay: Inactivation of the epimerase by sugar in the presence of UMP. The conditions noted are these: 500 mM sucrose, 0.1 mM UMP, Hepes pH 7.2, 30° C., 8 hours. The procedure:
A: 200 mM Hepes pH 7.2, 1 mM DTT, 1 mg/ml BSA B: 200 mM Hepes pH 7.2, 1 mM DTT, 1 mg/ml BSA, 500 mM sucrose A. Buffer solution A B. Buffer solution A, 0.1 mM UMP C. Buffer solution B D. […] Incubation temperature: 30° C. Activity test: (Fukusawa et al., J. Biol. Chem. 255, 2705-2707 (1980)) | 893 μl of 100 mM glycine buffer, pH 8.8 | 20 μl of 5 mM UDP-Gal | 20 μl of 50 mM NAD […] |33.3 μl of epimerase Temperature: 25° C. Measurement at 340 nm

Where [4] appears, read: 2 h, pH 7.2, read-out: Rel. activity of the epimerase, incubation time 2h.
Where [5] appears, read: 2 h, acceptor 50 mM, buffer P pH 7.2 containing 0.1 mM UMP, read-out: Rel. activity of the epimerase, incubation time 2h.
Where [6] appears, read: acceptor 50 mM, buffer P pH 7.2 containing 0.1 mM UMP.
The mark [7] stands for this setting: inactivated epimerase plus activator, different concentrations.

T1 sequence (P04397 whole entry): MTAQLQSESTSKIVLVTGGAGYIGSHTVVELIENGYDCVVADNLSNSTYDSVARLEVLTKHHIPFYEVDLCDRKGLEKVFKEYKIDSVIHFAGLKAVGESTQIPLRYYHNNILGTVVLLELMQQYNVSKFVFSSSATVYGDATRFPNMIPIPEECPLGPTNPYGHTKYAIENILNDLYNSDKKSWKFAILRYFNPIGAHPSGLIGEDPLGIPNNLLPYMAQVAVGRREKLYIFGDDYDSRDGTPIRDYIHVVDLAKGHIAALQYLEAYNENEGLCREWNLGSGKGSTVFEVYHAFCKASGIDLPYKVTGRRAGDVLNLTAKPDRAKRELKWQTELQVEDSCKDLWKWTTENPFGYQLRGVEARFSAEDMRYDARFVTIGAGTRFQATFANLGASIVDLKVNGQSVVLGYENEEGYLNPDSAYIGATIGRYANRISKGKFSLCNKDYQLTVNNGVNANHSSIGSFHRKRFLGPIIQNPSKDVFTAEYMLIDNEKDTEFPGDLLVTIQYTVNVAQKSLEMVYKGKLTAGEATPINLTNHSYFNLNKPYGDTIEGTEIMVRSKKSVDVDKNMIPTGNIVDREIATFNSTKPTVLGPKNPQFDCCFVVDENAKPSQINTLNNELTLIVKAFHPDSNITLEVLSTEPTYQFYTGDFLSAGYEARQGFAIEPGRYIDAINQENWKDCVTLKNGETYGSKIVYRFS

With `OC[C@H]1OC(O)[C@H](O)[C@@H](O)[C@@H]1O` (stereo partly shown) [Glc, glucose], in assay [1] (setting [4]), the activity at 50000 µM worked out at 15.8%. The “inactivation of the epimerase (in words)” value in assay [1] is “inactivated”.
For `CC(=O)N[C@H]1C(O)O[C@H](CO)[C@@H](O)[C@@H]1O` (stereo partly shown) [GlcNAc, N-acetylglucosamine], the activity at 50000 µM in assay [1] (setting [5]) was 93.6%. For the same compound, in assay [1] (setting [6]), the “Rel. activity of the epimerase, incubation time 7h” value (“Rel. activity of the epimerase” for short) is 97.5.
In the case of `OC[C@H]1SC(O)[C@H](O)[C@@H](O)[C@@H]1O` (stereo partly drawn) [Thioglc, 5-thio-D-glucose], the activity at 50000 µM in assay [1] (setting [5]) amounted to 87.9%. Further, in assay [1] (setting [6]), the “Rel. activity of the epimerase” value is reported as 34.3. In addition, in assay [1], the “inactivation of the epimerase (in words)” value is reported as “inactivated”.
As for `OC[C@H]1OC(O)[C@H](O)[C@@H](O)[C@H]1O` (stereo partly shown) [galactose], the “measured activity of the epimerase after inactivation” value in assay [2] (50 mM galactose, 0.1 mM UMP, 0.25 mg/ml epimerase, 2 h at 30° C.) stood at 3%.
For `OC[C@H]1O[C@@](CO)(O[C@H]2O[C@H](CO)[C@@H](O)[C@H](O)[C@H]2O)[C@@H](O)[C@@H]1O` [sucrose], the “inactivation of the epimerase (in words)” value in assay [3] is “inactivated”.
With `C[C@H]1O[C@H](OP(=O)(O)OP(=O)(O)OC[C@H]2O[C@@H](n3ccc(=O)[nH]c3=O)C[C@@H]2O)[C@H](O)[C@@H](O)C1=O` [dUDP-6-deoxy-D-xylo-4-hexulose], in assay [2], the “reactivation of the epimerase (in words)” value is listed as “can be used to reactivate; also recorded: successfully employed to reactivate the epimerase” and the “time after which renewed inactivation of the epimerase is observed” value was 32 h. In assay [2] (1 mM activator, activity monitored over […]), the “activation of the epimerase (in words)” value is listed as “rapid activation of the epimerase, with the activation being stable over the period of observation”. The “activation of the epimerase (in words)” value in assay [2] (setting [7]) is “rapid and long-lasting activation”.
As to `OC[C@H]1OC(O)C[C@@H](O)[C@@H]1O` (stereo partly drawn) [2-Deoxyglc, 2-deoxy-D-glucose], the activity at 50000 µM in assay [1] (setting [4]) was 20.7%. In assay [1], the “inactivation of the epimerase (in words)” value is reported as “inactivated”.
On to `CCCCCCCCOC1O[C@H](CO)[C@@H](O)[C@H](O)[C@H]1O` (stereo partly shown) [n-Octylglucopyranoside, n-octylglucopyranoside], for which the activity at 50000 µM in assay [1] (setting [5]) turned out to be 86.1%; in assay [1] (8 h, acceptor 50 mM, buffer P pH 7.2 containing 0.1 mM UMP, read-out: Rel. activity of the epimerase, incubation time 8h), 29.3%. Besides, in assay [1] (setting [6]), the “Rel. activity of the epimerase” value is 75.6. In addition, the “inactivation of the epimerase (in words)” value in assay [1] is “inactivated”.
Consider `Cc1cn([C@H]2C[C@H](O)[C@@H](COP(=O)(O)OP(=O)(O)O[C@H]3O[C@H](C)C(=O)[C@H](O)[C@H]3O)O2)c(=O)[nH]c1=O` [dTDP-6-deoxy-D-xylo-4-hexulose], for which, in assay [2], the “reactivation of the epimerase (in words)” value is listed as “can be used to reactivate” and the “time after which renewed inactivation of the epimerase is observed” value is 32 h. Moreover, the “activation of the epimerase (in words)” value in assay [2] (setting [7]) is “rapid and long-lasting activation”.
